# Where “and” joins values, the source holds several entries; their conditions need not be identical. Equal values may be shown once. Inconclusive results and toxic doses are left out.
# Test system: BDF1 mice, P388 leukemia ip, median survival T/C
# Experiment: NCI In Vivo Anticancer Drug Screen. Data for tumor model P388 Leukemia (intraperitoneal) in B6D2F1 (BDF1) mice
# Conditions: endpoint: median survival time, higher = longer survival
# Method in brief: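 Reported as T/C, where T is the survival measurement in dosed animals and C the same measurement in vehicle controls.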
# [1] = dose: 100.0 mg/kg/injection, schedule: Q04DX003 (ip), vehicle: saline
# [2] = dose: 200.0 mg/kg/injection, schedule: Q04DX003 (ip), vehicle: saline
# [3] = dose: 400.0 mg/kg/injection, schedule: Q04DX003 (ip), vehicle: saline
# [4] = dose: 25.0 mg/kg/injection, schedule: Q04DX003 (ip), vehicle: saline with Tween-80
# [5] = dose: 50.0 mg/kg/injection, schedule: Q04DX003 (ip), vehicle: saline with Tween-80
# [6] = dose: 100.0 mg/kg/injection, schedule: Q04DX003 (ip), vehicle: saline with Tween-80
# [7] = dose: 200.0 mg/kg/injection, schedule: Q04DX003 (ip), vehicle: saline with Tween-80
# [8] = dose: 50.0 mg/kg/injection, schedule: Q01DX009 (ip), vehicle: saline with Tween-80
# [9] = dose: 100.0 mg/kg/injection, schedule: Q01DX009 (ip), vehicle: saline with Tween-80
# [10] = dose: 200.0 mg/kg/injection, schedule: Q01DX009 (ip), vehicle: saline with Tween-80
# [11] = dose: 400.0 mg/kg/injection, schedule: Q04DX003 (ip), vehicle: saline with Tween-80
# [12] = dose: 50.0 mg/kg/injection, schedule: Q04DX003 (ip), vehicle: saline
# [13] = dose: 50.0 mg/kg/injection, schedule: Q01DX005 (ip), vehicle: saline with Tween-80
# [14] = dose: 100.0 mg/kg/injection, schedule: Q01DX005 (ip), vehicle: saline with Tween-80
# [15] = dose: 200.0 mg/kg/injection, schedule: Q01DX005 (ip), vehicle: saline with Tween-80
# [16] = dose: 25.0 mg/kg/injection, schedule: Q01DX009 (ip), vehicle: saline with Tween-80
# [17] = dose: 25.0 mg/kg/injection, schedule: Q04DX003 (ip), vehicle: saline
# [18] = dose: 25.0 mg/kg/injection, schedule: Q01DX009 (ip), vehicle: saline
# [19] = dose: 50.0 mg/kg/injection, schedule: Q01DX009 (ip), vehicle: saline
# [20] = dose: 100.0 mg/kg/injection, schedule: Q01DX009 (ip), vehicle: saline
# [21] = dose: 100.0 mg/kg/injection, schedule: Q04DX003 (ip), vehicle: Klucel (hydroxypropylcellulose) (HPC)
# [22] = dose: 200.0 mg/kg/injection, schedule: Q04DX003 (ip), vehicle: Klucel (hydroxypropylcellulose) (HPC)
# [23] = dose: 400.0 mg/kg/injection, schedule: Q04DX003 (ip), vehicle: Klucel (hydroxypropylcellulose) (HPC)
# [24] = dose: 0.75 mg/kg/injection, schedule: Q01DX009 (ip), vehicle: saline
smiles,measurement,setting,value
CC12CC3(O)CCC1CCC2C(=O)C3 (centres undefined),T/C,[1],118 % of control
same,T/C,[2],109 % of control
same,T/C,[3],122 % of control
FC(F)(F)C1=NC(=S)C(c2[nH]c(C(F)(F)F)nc2S)=N1,T/C,"dose: 3.12 mg/kg/injection, schedule: Q01DX009 (ip), vehicle: water",91 % of control
same,T/C,"dose: 6.25 mg/kg/injection, schedule: Q01DX009 (ip), vehicle: water",99 % of control
same,T/C,"dose: 12.5 mg/kg/injection, schedule: Q01DX009 (ip), vehicle: water",108 % of control
same,T/C,"dose: 12.5 mg/kg/injection, schedule: Q04DX003 (ip), vehicle: water",89 % of control and 107 % of control
same,T/C,"dose: 25.0 mg/kg/injection, schedule: Q01DX009 (ip), vehicle: water",103 % of control
same,T/C,"dose: 25.0 mg/kg/injection, schedule: Q04DX003 (ip), vehicle: water",95 % of control and 100 % of control
same,T/C,"dose: 50.0 mg/kg/injection, schedule: Q01DX009 (ip), vehicle: water",112 % of control
same,T/C,"dose: 50.0 mg/kg/injection, schedule: Q04DX003 (ip), vehicle: water",89 % of control and 100 % of control
same,T/C,"dose: 100.0 mg/kg/injection, schedule: Q01DX009 (ip), vehicle: water",110 % of control
same,T/C,"dose: 100.0 mg/kg/injection, schedule: Q04DX003 (ip), vehicle: water",89 % of control and 105 % of control
CCCN1c2ccccc2Sc2ccccc21,T/C,[4],100 % of control
same,T/C,[5],90 % of control
same,T/C,[6],90 % of control
same,T/C,[7],90 % of control
CC(C)(C)c1cc(C(=O)O)c(Sc2c(C(=O)O)cc(C(C)(C)C)cc2C(C)(C)O)c(C(C)(C)O)c1,T/C,"dose: 100.0 mg/kg/injection, schedule: Q01DX001 (ip), vehicle: saline with Tween-80",101 % of control
same,T/C,"dose: 200.0 mg/kg/injection, schedule: Q01DX001 (ip), vehicle: saline with Tween-80",101 % of control
same,T/C,"dose: 400.0 mg/kg/injection, schedule: Q01DX001 (ip), vehicle: saline with Tween-80",113 % of control
CN1c2ccccc2C(=O)NC1c1ccc([N+](=O)[O-])s1 (centres undefined),T/C,[8],95 % of control
same,T/C,[9],100 % of control
same,T/C,[10],91 % of control
CCCCC(CC)C1NCCO1 (centres undefined),T/C,[8],103 % of control
same,T/C,[6],110 % of control
same,T/C,[10],92 % of control
same,T/C,[7],115 % of control
same,T/C,[11],115 % of control
COc1cc(CN2CCCN(Cc3cc(OC)c(OC)c(OC)c3)C2c2ccc(N(CCCl)CCCl)cc2C)cc(OC)c1OC,T/C,[12],109 % of control
same,T/C,[1],104 % of control
same,T/C,[2],90 % of control
same,T/C,[3],109 % of control
CCOC(=O)CCN(CCCN(C)C)c1cc(O)c2c(c1O)C(=O)c1ccccc1C2=O,T/C,[13],89 % of control
same,T/C,[14],103 % of control
same,T/C,[15],108 % of control
CCOC(=O)/C=C\CBr,T/C,"dose: 1.5 mg/kg/injection, schedule: Q01DX010 (ip), vehicle: saline",100 % of control
same,T/C,"dose: 3.0 mg/kg/injection, schedule: Q01DX010 (ip), vehicle: saline",100 % of control
same,T/C,"dose: 6.0 mg/kg/injection, schedule: Q01DX010 (ip), vehicle: saline",105 % of control
same,T/C,"dose: 12.0 mg/kg/injection, schedule: Q01DX010 (ip), vehicle: saline",100 % of control and 115 % of control
same,T/C,"dose: 24.0 mg/kg/injection, schedule: Q01DX010 (ip), vehicle: saline",100 % of control
same,T/C,"dose: 48.0 mg/kg/injection, schedule: Q01DX010 (ip), vehicle: saline",120 % of control
CCCCCCC(c1c(O)cc(C)[nH]c1=O)c1c(O)cc(C)[nH]c1=O,T/C,[8],96 % of control
same,T/C,[9],96 % of control
same,T/C,[10],90 % of control
CCCNC1(C(N)=O)CCN(Cc2ccccc2)CC1,T/C,[16],107 % of control
same,T/C,[4],104 % of control
same,T/C,[8],111 % of control
same,T/C,[5],86 % of control
same,T/C,[9],96 % of control
same,T/C,[6],95 % of control
COc1ccc2cc1Oc1ccc(cc1)C[C@H]1c3cc(c(OC)cc3CCN1C)Oc1c(OC)c(OC)cc3c1[C@H](C2)N(C)CC3,T/C,"dose: 12.5 mg/kg/injection, schedule: Q04DX003 (ip), vehicle: saline",105 % of control
same,T/C,[17],90 % of control
same,T/C,[12],110 % of control
same,T/C,[1],110 % of control
NC(CCC(=O)c1ccccn1)C(=O)O (centres undefined),T/C,"dose: 12.5 mg/kg/injection, schedule: Q01DX009 (ip), vehicle: saline",103 % of control
same,T/C,[18],117 % of control
same,T/C,[19],98 % of control
same,T/C,[20],117 % of control
Oc1ccccc1-c1nnc2sc3c(Cl)c4nn5c(-c6ccccc6O)nnc5sc4c(Cl)c3nn12,T/C,[8],98 % of control
same,T/C,[9],98 % of control
same,T/C,[10],96 % of control
COc1ccccc1NC(=O)c1ccc(Cl)cc1Cl,T/C,"dose: 25.0 mg/kg/injection, schedule: Q01DX009 (ip), vehicle: Klucel (hydroxypropylcellulose) (HPC)",116 % of control
same,T/C,"dose: 50.0 mg/kg/injection, schedule: Q01DX009 (ip), vehicle: Klucel (hydroxypropylcellulose) (HPC)",122 % of control
same,T/C,"dose: 100.0 mg/kg/injection, schedule: Q01DX009 (ip), vehicle: Klucel (hydroxypropylcellulose) (HPC)",122 % of control
same,T/C,[21],100 % of control
same,T/C,"dose: 200.0 mg/kg/injection, schedule: Q01DX009 (ip), vehicle: Klucel (hydroxypropylcellulose) (HPC)",104 % of control
same,T/C,[22],95 % of control
same,T/C,"dose: 400.0 mg/kg/injection, schedule: Q01DX009 (ip), vehicle: Klucel (hydroxypropylcellulose) (HPC)",104 % of control
same,T/C,[23],104 % of control
Cc1ncc([N+](=O)[O-])n1CCSC(N)=O,T/C,[6],120 % of control
same,T/C,[7],160 % of control
CCN(CC)CCOc1cc(C)ccc1C,T/C,[18],103 % of control
same,T/C,[17],109 % of control
same,T/C,[19],92 % of control
same,T/C,[12],100 % of control
same,T/C,[20],89 % of control
same,T/C,[1],90 % of control
CCN=C=NCCCN(C)C,T/C,"dose: 7.5 mg/kg/injection, schedule: Q01DX009 (ip), vehicle: saline",105 % of control
same,T/C,"dose: 15.0 mg/kg/injection, schedule: Q01DX009 (ip), vehicle: saline",105 % of control
same,T/C,"dose: 30.0 mg/kg/injection, schedule: Q01DX009 (ip), vehicle: saline",94 % of control
same,T/C,"dose: 60.0 mg/kg/injection, schedule: Q01DX009 (ip), vehicle: saline",100 % of control
O=C1C(NCCO)=C(N2CC2)C(=O)C(NCCO)=C1N1CC1,T/C,"dose: 0.18 mg/kg/injection, schedule: Q01DX009 (ip), vehicle: saline",248 % of control and 93 % of control
same,T/C,"dose: 0.37 mg/kg/injection, schedule: Q01DX009 (ip), vehicle: saline",275 % of control and 203 % of control
same,T/C,[24],194 % of control
CC(=O)c1nc2c(N)nc(N)nc2nc1C,T/C,[6],92 % of control
same,T/C,[7],111 % of control
same,T/C,[11],106 % of control
Cc1cc(N2CCCCC2)nc(N2CCCCC2)c1C#N,T/C,[13],86 % of control
same,T/C,[14],86 % of control
same,T/C,[15],96 % of control
CC(C)CCCC(C)C1CCC2C3CC=C4CC(OP(=O)(N5CC5)N5CC5)CCC4(C)C3CCC12C (centres undefined),T/C,[16],98 % of control
same,T/C,[8],100 % of control
same,T/C,[9],117 % of control
same,T/C,[10],110 % of control
CCOC(=O)CNC(=O)C(CSSCC(NC(=O)OCc1ccccc1)C(=O)NCC(=O)OCC)NC(=O)OCc1ccccc1 (centres undefined),T/C,[21],118 % of control
same,T/C,[22],86 % of control
same,T/C,[23],109 % of control
CC1=C[S+](c2ccccc2)c2cccc3cc4ccccc4c1c23 (centres undefined),T/C,"dose: 0.4 mg/kg/injection, schedule: Q01DX009 (ip), vehicle: saline with Tween-80",154 % of control
same,T/C,"dose: 0.6 mg/kg/injection, schedule: Q01DX009 (ip), vehicle: saline with Tween-80",165 % of control
same,T/C,"dose: 0.9 mg/kg/injection, schedule: Q01DX009 (ip), vehicle: saline with Tween-80",154 % of control and 155 % of control
same,T/C,"dose: 2.5 mg/kg/injection, schedule: Q01DX009 (ip), vehicle: saline with Tween-80",116 % of control
OCCOCCN1CCN(CC/C=C2\c3ccccc3Sc3ccc(C(F)(F)F)cc32)CC1,T/C,[24],95 % of control
same,T/C,"dose: 1.5 mg/kg/injection, schedule: Q01DX009 (ip), vehicle: saline",90 % of control
same,T/C,"dose: 3.0 mg/kg/injection, schedule: Q01DX009 (ip), vehicle: saline",95 % of control

# — PubChem BioAssay AID328 (DTP/NCI, 2004)
